Experimental data taken from PMC10183829, “Shuffled ATG8 interacting motifs form an ancestral bridge between UFMylation and autophagy” (The EMBO Journal, 2023).
“Also recorded” adds a separate entry of the source. No end group written: not given here.

Tests used:
HsUFM1 = experiment: Native mass spectrometry (nMS) complex formation with HsUFM1; type: binding, Homo sapiens; conditions: HsUFM1 5 μM, peptide 25 μM
Experimental: Proteins were buffer exchanged into ammonium acetate using BioRad Micro Bio‐Spin 6 Columns. Native mass spectrometry experiments were carried out on a Synapt G2Si instrument (Waters, Manchester, UK) with a nanoelectrospray ionization source (nESI). Mass calibration was performed by a separate infusion of NaI cluster ions. Solutions were ionized from a thin‐walled borosilicate glass capillary (i.d. 0.78 mm, o.d. 1.0 mm, Sutter Instrument Co., Novato, CA, USA) pulled in‐house to nESI tip with a Flaming/Brown micropipette puller (Sutter Instrument Co., Novato, CA, USA). A potential of 0.8 kV was applied to the solution via a thin platinum wire (diameter 0.125 mm, Goodfellow, Huntingdon, UK). The following instrument parameters were used: capillary voltage 0.8 kV, sample cone voltage 40 V, source offset 60 V, source temperature 40°C, trap collision energy 4.0 V, and trap gas 3 ml/min. Data were processed using Masslynx V4.2 and OriginPro 2021.

[1] = test system: GST-HsUFM1 / mCh-HsC53 interaction; experiment: On-bead competition of the HsUFM1-HsC53 interaction; type: binding, Homo sapiens; conditions: 1 μM HsC53; cAIM peptide 0-100 μM; UBA5 LIR peptide or GABARAP 100 μM
Experimental: (§1) Glutathione‐Sepharose 4B bead slurry (Cytiva, average diameter 90 μm) was washed and diluted 10 times in HEPES buffer (25 mM HEPES pH 7.5, 150 mM NaCl, 1 mM DTT). The beads were then incubated for 30 min at 4°C (16 rpm horizontal rotation) with GST‐tagged bait proteins (2 μM of GST, GST‐FIP200 CD, GST‐ATG8A, GST‐GABARAP, GST‐AtUFM1, and GST‐HsUFM1). The beads were washed five times in 10 times the bead volume of HEPES buffer. The buffer was removed, and the beads were resuspended 1:20 in HEPES buffer. 10 μl of diluted beads was mixed with 20 μl of mCherry‐tagged binding partner at a concentration of 1.5 μM (0.5 μl bead slurry and 1 μM binding partner final concentrations) with or without competitor, as stated in the relative experiment. […]
(§2) From images acquired from a Zeiss LSM700 confocal microscope, the quantification of fluorescence was performed in ImageJ (Schindelin et al, [2012]) by drawing a line across each bead and taking the maximum gray value along the line. The maximum gray value for any given pixel represents the fluorescence intensity.
(§3) For images acquired from a Zeiss LSM800 confocal microscope, we used a custom Fiji Macro. […] In the end, the mean fluorescent intensities were exported out and used for quantification.
(§4) For each method, the fluorescence intensity was normalized against the mean of the control condition.

[2] = test system: GST-HsUFM1 / MBP-HsC53 interaction; experiment: In vitro GST pulldown competition of the HsUFM1-HsC53 interaction; type: binding, Homo sapiens; conditions: cAIM peptide 200 μM; immunoblot read-out
Experimental: (§5) For pulldown experiments, 5 μl of glutathione magnetic agarose beads (Pierce Glutathione Magnetic Agarose Beads, Thermo Scientific) was equilibrated by washing them two times with wash buffer (100 mM Sodium Phosphate pH 7.2, 300 mM NaCl, 1 mM DTT, 0.01% (v/v) IGEPAL). Normalized E. coli clarified lysates or purified proteins were mixed, according to the experiment, added to the washed beads, and incubated on an end‐over‐end rotator for 1 h at 4°C. Beads were washed five times with 1 ml wash buffer. Bound proteins were eluted by adding 50 μl Laemmli buffer. Samples were analyzed by western blotting or Coomassie staining.

[3] = test system: GST-GABARAP / MBP-C53 interaction; experiment: In vitro GST pulldown competition of the GABARAP-C53 interaction; type: binding, human; conditions: cAIM peptide 200 μM; immunoblot read-out
Experimental: as §5

[4] = test system: GST-GABARAP / mCh-HsC53 interaction; experiment: On-bead competition of the GABARAP-HsC53 interaction; type: binding, human; conditions: 1 μM HsC53; cAIM peptide 0-100 μM; 4 replicates
Experimental: as §1, §2, §3, §4

[5] = test system: GST-ATG8A / mCh-AtC53 interaction; experiment: On-bead competition of the ATG8A-AtC53 interaction; type: binding, Arabidopsis thaliana; conditions: 1 μM AtC53; cAIM peptide 0-100 μM; 2 independent replicates containing 2 technical replicates
Experimental: as §1, §2, §3, §4

[6] = test system: GST-AtUFM1 / mCh-AtC53 interaction; experiment: On-bead competition of the AtUFM1-AtC53 interaction; type: binding, Arabidopsis thaliana; conditions: 1 μM AtC53; cAIM peptide 0-100 μM; 2 independent replicates containing 2 technical replicates
Experimental: as §1, §2, §3, §4

ATG8A = biological target: T1, ATG8A (Arabidopsis thaliana, UniProt Q8LEM4); experiment: Fluorescence anisotropy binding of TAMRA-labeled AtC53 IDR-derived peptides to ATG8A
T1 construct: made in house; host or cells: E. coli Rosetta2 (DE3) pLysS
Experimental: (§6) For fluorescence anisotropy measurements, all peptides were in‐house synthetized and HPLC purified attached to 5(6)‐Carboxytetramethylrhodamine (TAMRA) to its N‐terminal. Binding affinities of ATG8A or AtUFM1 to TAMRA‐labeled peptides were measured by the change in fluorescence anisotropy in an FS5 Spectrofluorometer (Edinburgh Instruments) with excitation at 550 nm (slit width 5 nm) and emission at 580 nm (slit width 5 nm). […] Binding curves were fitted using Prism Software (GraphPad).

AtUFM1 = biological target: T2, AtUFM1 (Arabidopsis thaliana, UniProt Q9CA23); experiment: Fluorescence anisotropy binding of TAMRA-labeled AtC53 IDR-derived peptides to AtUFM1
T2 construct: made in house; host or cells: E. coli Rosetta2 (DE3) pLysS
Experimental: as §6

T1 sequence (Q8LEM4 whole entry): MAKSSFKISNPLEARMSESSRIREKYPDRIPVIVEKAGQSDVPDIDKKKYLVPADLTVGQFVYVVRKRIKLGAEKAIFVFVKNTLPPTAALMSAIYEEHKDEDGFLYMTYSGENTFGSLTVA
T2 sequence (Q9CA23 whole entry): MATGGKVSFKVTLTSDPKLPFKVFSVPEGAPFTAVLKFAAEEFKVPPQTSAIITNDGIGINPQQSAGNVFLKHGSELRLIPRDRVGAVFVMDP

Sequence: GPLHDDNEWNISVVDD [UBA5 LIR peptide]
- Complex formation with HsUFM1 by nMS (in words) (HsUFM1): forms a 1:1 complex
- Competition of the HsC53-HsUFM1 interaction (in words) [1]: able to disrupt

Sequence: EPLDFDWEIVLEEEM [cAIM peptide]
- Complex formation with HsUFM1 by nMS (in words) (HsUFM1): did not appreciably interact; also recorded: negligible amount of 1:1 complex
- Competition of the HsUFM1-HsC53 interaction in pulldown (in words) [2]: cannot outcompete
- Competition of the HsC53-HsUFM1 interaction (in words) [1]: could not outcompete
- Competition of the GABARAP-C53 interaction in pulldown (in words) [3]: outcompeted
- Competition of the HsC53-GABARAP interaction (in words) [4]: outcompeted
- Competition of the AtC53-ATG8A interaction (in words) [5]: outcompeted
- Competition of the AtC53-AtUFM1 interaction (in words) [6]: could not outcompete

Sequence: AADSWDDIITVET [cAIM mut]
- Kd (ATG8A): 94.3 µM

Sequence: AADSIDWDITVETPEIDWDVSMVEEV [sAIM1,2]
- Kd (AtUFM1): 148 µM

Sequence: AADSIDADITVET [sAIM mut, sAIM mutant peptide where the tryptophan was mutated to alanine]
- Behaviour in fluorescence anisotropy titration with UFM1 (in words) (AtUFM1; 50 nM TAMRA-labeled peptide, up to 320 μM AtUFM1): did not show any change
- Behaviour in fluorescence anisotropy titration with ATG8 (in words) (ATG8A; 50 nM TAMRA-labeled peptide, up to 320 μM ATG8A): did not show any change

Sequence: DVSEISWDVSVET [sAIM3]
- Kd (ATG8A): 176 µM
